{"source": "patent US4557930A", "about": "“Anticholesteremic anion exchange resins” (Mitsubishi Petrochemical Co., Ltd., priority 1983, dated 1985)", "test_system": "descending aorta; plasma lipids", "assay": "In vivo test by rabbit (arteriosclerosis inhibition test): plasma lipids and aorta", "design": "species or system rabbit (New Zealand)", "from_the_text": "Eight to fourteen male New Zealand species rabbits, weighing about 2.2 Kg, were used per each group. To the first group of rabbits was given 40 g/Kg-body weight/day of a mixture of a feed produced by Oriental Yeast Co. mixed with 0.67% of cholesterol for 12 weeks, and to the rabbits of the second and third groups were further given CR - 1 and Clofibrate, respectively.\nCR - 1 and Clofibrate employed was mixed in the feed at levels of 1.25% and 0.25%, respectively.\nDuring the tests, the plasma lipid concentrations were measured, and after 12 weeks, all the rabbits were sacrificed by bleeding. Descending aorta were subjected to incision and the conditions of arteriosclerosis were observed.", "key": {"[1]": {"conditions": "0.67% cholesterol intake, 6 weeks, CR - 1 1.25%, Clofibrate 0.25% in feed"}, "[2]": {"conditions": "0.67% cholesterol intake, 12 weeks, CR - 1 1.25%, Clofibrate 0.25% in feed"}}}
{"smiles": "CCOC(=O)C(C)(C)Oc1ccc(Cl)cc1", "note": "[Clofibrate]", "values": [{"measurement": "Total plasma: Cholesterol", "setting": "[1]", "value": "1810 ± 124", "unit": "mg/dL"}, {"measurement": "Total plasma: Triglyceride", "setting": "[1]", "value": "337.1 ± 66.1", "unit": "mg/dL"}, {"measurement": "Total plasma: β-Lipoprotein", "setting": "[1]", "value": "5038 ± 450", "unit": "mg/dL"}, {"measurement": "Aorta: Area of blood vessel at arteriosclerosis", "setting": "[2]", "value": "8.0 ± 1.4", "unit": "cm^2"}, {"measurement": "Aorta: Inhibition of arteriosclerosis", "setting": "[2]", "value": 18.0, "unit": "%"}, {"measurement": "Aorta: Total area", "setting": "[2]", "value": "17.7 ± 0.5", "unit": "cm^2"}, {"measurement": "Total plasma: Cholesterol", "setting": "[2]", "value": "1895 ± 117", "unit": "mg/dL"}, {"measurement": "Total plasma: Triglyceride", "setting": "[2]", "value": "336.8 ± 39.7", "unit": "mg/dL"}, {"measurement": "Total plasma: β-Lipoprotein", "setting": "[2]", "value": "4385 ± 574", "unit": "mg/dL"}, {"measurement": "Aorta: Percentage of arteriosclerosis", "setting": "(Area at arteriosclerosis)/(Total blood vessel area) × 100, 0.67% cholesterol intake, 12 weeks", "value": "44.2 ± 7.0", "unit": "%"}]}
